# Measured values from patent US9708247B2, “Modulators of the eIF2alpha pathway” (The Regents of the University of California, priority 2013, dated 2017).
# Assays:
# spatial learning = assay: Morris water maze (hidden platform, weak training); type: in vivo, mouse; details: p<0.05
# Description: (§1) Eight to ten-week-old male C57BL/6J mice were used for behavioral experiments. Food and water were provided ad libitum, and mice were kept on a 12:12 h light/dark cycle (lights on at 08:00 h). All procedures complied with Canadian Council on Animal Care guidelines
# Mice were trained in a water pool of 100 cm diameter with a hidden platform of 10 cm diameter. Mice were handled daily for 3 days before the experiment, and the training protocol consisted of 1 swimming trial per day. Each mouse swam until it found the hidden platform or 120 s, when it was gently guided to the platform and stayed there for 10 s before being returned to the cage. Immediately after the swimming trial the mice were injected intraperitoneally with ISRIB (0.25 mg/kg in saline, 1% DMSO). For the probe test, the platform was removed and each mouse was allowed to swim for 60 s, while its swimming trajectory was monitored with a video tracking system (HVS Image, Buckingham).
# contextual fear memory = assay: Contextual fear conditioning; type: in vivo, mouse; details: vs vehicle
# Description: as §1
# Mice were handled for 3 days and thereafter injected daily intraperitoneally with ISRIB (0.25 mg/kg in saline, 1% DMSO) for 4 consecutive days. One hour after the last injection the mice were trained with the protocol, which consisted of a 2-min period of context exploration, followed by a single foot shock of 0.35 mA for 1 s. The mice were returned to their home cage 1 min after the shock. One and 24 h after training, the mice were tested for contextual fear memory by placing the animals in the conditioning context for a 4-min period. The incidence of freezing was scored in 5-s intervals as either “freezing” or “not freezing”. Percent of freezing indicates the number of intervals in which freezing was observed divided by total number of 5-s intervals. Statistical analyses were done by Student's t tests and one-way ANOVA followed by between-group comparisons using Tukey's posthoc test.
# global translation = assay: Metabolic labeling (35S-methionine incorporation) in HEK293T cells; type: cell-based, human; details: 100 nM thapsigargin plus 200 nM ISRIB
# Description: HEK293T cells were seeded on 12 well plates, allowed to recover overnight and treated for the indicated times with the indicated compounds. The cells were subsequently switched to media lacking methionine and cysteine supplemented with the indicated compounds and 50 μCi of ^35S-methionine (Perkin Elmer) for 20 min. Cells were lysed by addition of SDS-PAGE loading buffer. Lysates were sonicated and equal amounts were loaded on SDS-PAGE gels (BioRad). The gel was dried and radioactive methionine incorporation was detected by exposure to a phosphor-screen and visualized with a Typhoon 9400 Variable Mode Imager (GE Healthcare).
# CHOP and GADD34 mRNA = assay: qRT-PCR of CHOP and GADD34 mRNA in U2OS cells; type: cell-based, human; details: 2 μg/ml tunicamycin, 200 nM ISRIB
# Description: FIGS. 4A-4B. ISRIB impairs induction of the transcriptional network controlled by ATF4; (FIG. 4A) ER-stress dependent induction of CHOP and GADD34 mRNA is impaired in cells treated with ISRIB; qPCR analysis of total RNA extracted from U2OS cells treated with 2 μg/ml of tunicamycin in the presence or absence of 200 nM ISRIB for the indicated times; mRNA levels for each sample were normalized to GAPDH (N=4); P values are derived from a one tail Student's t-test for unpaired samples; statistical significance: CHOP, P=0.0006 (*); GADD34, P=0.0008 (*); (FIG. 4B) ISRIB blocks CHOP production during ER stress; an immunofluorescence analysis of U2OS cells treated with 100 nM thapsigargin for 2 h in the presence or absence of 200 nM ISRIB is shown; a secondary Alexa Dye 488 anti-mouse antibody and rhodamine-phalloidin were used to visualize CHOP and actin, respectively.
# U2OS cells were plated on 96 well plates and allowed to recover overnight. Cells were treated for the indicated times with the indicated compounds, lysed and cDNA was synthesized using the PowerSYBR Green Cells-to-CT kit (Ambion) following the manufacturer's recommendations. The reactions were ran in an Opticon 2 thermal cycler (BioRad) and analyzed with the Opticon Monitor v3 software (BioRad). […]
smiles,measurement,setting,value
O=C(COc1ccc(Cl)cc1)NC1CCC(NC(=O)COc2ccc(Cl)cc2)CC1 (stereo not shown) [ISRIB],probe test: preference for target quadrant,spatial learning; 24 h after last training session,significantly preferred the target quadrant
same,escape latency after 5 days of training,"spatial learning; mice, 0.25 mg/kg ip daily after training, vehicle 68.1+/−20 s",16.4 ± 4.8 s
same,probe test: crossing of the platform location,spatial learning; vs vehicle,increased crossing of the platform location
same,"freezing, short-term contextual fear memory",contextual fear memory; 1 h after training,No differences were observed
same,"freezing, long-term contextual fear memory","contextual fear memory; 24 h after training, 0.25 mg/kg ip for 4 days, p<0.05",increased freezing
same,effect on thapsigargin-induced drop in translation,global translation,abolished
same,induction of GADD34 and CHOP mRNAs,CHOP and GADD34 mRNA,significantly reduced their induction
